Test results published in patent US7517840B2, “Optimized perfumery for rinse-off products” (Givaudan Fragrances Corporation, priority 2005, dated 2009).
Entries after “also recorded” stand apart in the source; their conditions may differ. Where two headings read alike, the source gives them in different places.

Legend:
[1] = Calculated pseudo-acceleration (Γ) of odorants in water, water-air and air
From the text: In the analysis of the volatility of odorants, several variables are found to be important. First, the vapor pressure of the odorant is an important measure of its volatility. The product of the odorant's activity coefficient γ in the partition its mole fraction X and its pure vapor pressure value Pv, gives the odorant's relative vapor pressure. A second important factor for volatility is the diffusivity D12 of the odorant in the considered media: water, vapor phase and subsequently air.
Other important variables to consider are the molecular weight Mw, of the odorant and its density in the partition ρl and in the solvent vapor state ρv. The final variable to consider is an energy parameter in the partition state. The energy difference ε12=ε12(polar)−ε12o(non-polar) is proportional to the partition coefficient of an odorant in a polar solvent such as water, and a water immiscible solvent such as octanol, benzene and paraffin liquid. The energy ε12 is called the partition energy and can be correlated to the clogP value of odorants.
The five variables D12, Pv, Mw, ρv and ε12 and the three dimensional variables indicate that there can be 5−3=2 dimensional variables which describe Newton's law. The easiest separation is to break the acceleration vector into 2 dimensional quantities: a frequency or first order rate constant (1/time) and a velocity (distance/time) term.
The velocity group can be formed from the vapor pressure and density. Since pressure has units of mass*distance/distance^2*time^2, and density has units of mass/distance^3, the ratio of the two has units of velocity squared. The square root gives the desired velocity.
The first order rate constant can be formed from the variables Mw, D12 and ε12. Since the partition energy ε12 has dimensions of calories per mole (mass.length^2/mole.time^2) and the diffusivity coefficient D12 has a dimension of distance^2 per time, the ratio yields exactly a molecular weight unit per time t. The energy can be made dimensionless by dividing by the gas constant k and temperature T. The remaining variable D12 can be made to a frequency by dividing by a cross sectional area L^2. A molecular area calculated from the liquid molar volume could represent this area.
Pseudo acceleration values are also closely linked to the ability of an odorant to travel through headspace once it is airborne in addition to its ability to migrate through the water and water-air partitions.

[2] = cited from earlier work
[3] = cited from earlier work; remark: listed apart in the source
[4] = GC-MS headspace release profile of perfume in shampoo, 1/100 dilution in water; type: physicochemical; settings: Tropical Fruit Perfume
Procedure: Experimental Procedure: Individual odorant to be tested was added to 20 g of shampoo formulation (see formula below in Table 4) at 0.1%.
A 10 gram sample of formulation and fragrance was added to an empty 1000 ml pyrex beaker. This beaker was then filled with 1000 ml of 120 F tap water. Beaker with diluted shampoo sample was then immediately placed into a semi-enclosed plexiglass chamber.
Headspace Sampling: Once beaker was placed into chamber a Carboxan SPME field fiber was held at the top-side opening of the chamber over the beaker containing the sample. […] […] Top of plexiglass chamber was held open for entire 5 minutes of headspace sampling.

[5] = Randebrock 1986; cited from earlier work

SMILES	release category by Γ [1]	ODT ([2]; Table 32, citrus note)	Boiling Point ([3]; Table 33)	GC Abundance ([4]; 20 seconds)	GC Abundance ([4]; 30 seconds)	GC Abundance ([4]; 40 seconds)	GC Abundance ([4]; 50 seconds)	also measured
CC1=CCC(C(C)(C)S)CC1 (stereo not shown)	flash release	50 ppb or less	229 deg C.	–	–	–	–	–
C=C(C)[C@H]1CC=C(C)CC1 [d-LIMONENE, d-1-Methyl-4-isopropenyl-1-cyclohexene]	flash release; also recorded: flash-release	–	–	7000	7000	5000	4000	GC Abundance ([4]; 5 seconds): 7000; GC Abundance ([4]; 10 seconds): 7000
CCCCC/C=C/CCC=O [TRANS-4-DECEN-1-AL]	flash release	50 ppb or less	200 deg C.	–	–	–	–	–
CCC=CCCC=CCO [2,6 NONADIEN-1-OL]	sustained release	–	–	–	–	–	–	ODT ([2]; Table 26, cucumber-melon note): 50 ppb or less; odor detection threshold value in water [2]: 1 part per billion
CCCCCCCCCCC=O [1-undecanal]	–	–	–	–	–	–	–	experimental odor detection threshold in air [5]: 0.00054 mg/m^3
CC(C)=CCCC(C)=CCS [THIOGERANIOL, 3,7-Dimethyl-2,6-octadien-1-thiol]	sustained release	50 ppb or less	250 deg C.	–	–	–	–	Boiling Point [3]: 250 °C
CCOC(=O)C(C)CC (stereo not shown) [ETHYL 2-METHYLBUTYRATE, Ethyl 2-methylbutyrate]	flash-release	–	–	3100	3100	2000	1500	exp ODT water ([2]; Booleans database): 0.1-0.3 ppb; ODT ([2]; Table 17, apple note compounds): 50 ppb or less; GC Abundance ([4]; 10 seconds): 3000
CC(=O)OC1CCCCC1C(C)(C)C (stereo not shown) [VERDOX]	sustained release	–	–	5000	14000	18000	20000	–
CCC=CCCC=CC=O [2,6-NONADIENAL]	flash release	–	–	–	–	–	–	ODT ([2]; Table 26, cucumber-melon note): 50 ppb or less; odor detection threshold values in water [2]: 0.01 ppb
